Test results from patent US11654143B2, “Therapeutic combinations of a BTK inhibitor, a PI3K inhibitor, a JAK-2 inhibitor, and/or a BCL-2 inhibitor” (Acerta Pharma B.V., priority 2014, dated 2023).

What was measured:
[1] = tested on: GPVI platelet aggregation; assay: GPVI platelet aggregation studies; type: cell-based; conditions: FIG. 122
[2] = tested on: human platelet-mediated thrombosis; assay: in vivo human thrombus formation in the VWF HA1 mice model; conditions: human platelets preincubated with BTK inhibitor, laser-induced injury
B cell receptor = assay: whole blood anti-IgD stimulated CD69 on CD19+ B cells; type: cell-based; conditions: whole blood from four healthy donors, 2 hours compound, anti-human IgD 18 hours
Experimental: Blood from four healthy donors was incubated for 2 hours with the compounds shown over a concentration range, and then stimulated with anti-human IgD [10 μg/mL] for 18 hours. The mean fluorescent intensity (MFI) of CD69 (and CD86, data not shown) on gated CD19+ B cells was measured by flow cytometry.

[3] = tested on: expression of activation markers CD69 and CD86; assay: in vivo potency: mice gavaged, BCR stimulated with IgM, CD69 and CD86 monitored by flow cytometry; conditions: gavage, 3 h post-dose, versus ibrutinib, FIG. 124
Experimental: Mice were gavaged at increasing drug concentration and sacrificed at one time point (3 h post-dose). BCR is stimulated with IgM and the expression of activation markers CD69 and CD86 are monitored by flow cytometry to determine EC50's.

canine B cell lymphoma = assay: veterinary clinical trial in companion dogs with B cell lymphoma; type: in vivo
Experimental: Enrollment has completed for both arms.
Intra-subject dose escalation was allowed. Six of the 11 dogs that initiated at 2.5 or 5 mg/kg once daily were escalated and completed the study with dosages of 10 mg/kg twice daily. Among all the dose cohorts, 8 dogs had shrinkage of target lesions >20%; the best tumor responses were between 45-49% reduction in the sum of target lesions in two dogs. […] CR were defined as disappearance of all evidence of disease per evaluator judgment, and absence of new lesions. Vali, et al., Vet. Comp. Oncol. 2010, 8, 28-37.
Of these, 7 dogs had shrinkage of target lesions >20%, providing evidence of biological activity for the combination; four of these dogs achieved a PR. […] The initial reductions in the sum of target lesions continued to deepen during the course of therapy in 7 of the 10 dogs.

CLL [4] = assay: clinical study in CLL (ALC and SPD); type: in vivo, human; conditions: CLL patients, FIG. 125
Source text: J. Med. 2013, 369, 32-42.

[5] = cardiovascular function study in awake telemeterized beagle dogs; conditions: male beagle dogs, single doses through 30 mg/kg
[6] = tested on: 80 known pharmacologic targets such as G-protein-coupled receptors, nuclear receptors, proteases, and ion channels; assay: binding assays with 80 known pharmacologic targets; conditions: screened at 10 μM
[7] = functional observation battery (GLP safety pharmacology); conditions: rats, doses through 300 mg/kg
[8] = glutathione binding and depletion in vitro; type: in vitro ADME
[9] = preliminary evaluations of metabolism in plasma, bile, and urine; type: in vivo; conditions: rats, dogs, and monkeys
NSCLC (KrasLA2) tumors = assay: genetic tumor model of NSCLC (KrasLA2); type: in vivo, mice; conditions: 15 mg/kg
Source text: The model is designed to have sporadic expression in single cells of G12D mutant Kras off its own promoter triggered by spontaneous intrachromosomal recombination. Johnson, et al. Nature 2001, 410, 1111-16. While the mutant Kras protein is expressed in a few cells in all tissues, tumor development is seen only in the lung at high penetrance.

CCL2 [10] = assay: CCL2 levels in treated patients; type: in vivo, human; conditions: FIG. 146
CLL [11] = assay: apoptosis in treated CLL patients; type: in vivo, human; conditions: FIG. 144
[12] = preliminary brain PK experiments, oral gavage; type: in vivo, Sprague-Dawley rats; conditions: 5 or 30 mg/kg/day oral
Source text: Two vehicle treated rats were sacrificed on each sampling day for comparison.

CYP enzymes = assay: nonclinical CYP interaction studies; type: in vitro ADME
[13] = study of respiratory function; conditions: rats, doses through 300 mg/kg
CLL [14] = assay: clinical study of Formula (XVIII) in relapsed/refractory CLL
Source text: (§1) This study is a multicenter, open-label, nonrandomized, sequential group, dose escalation study. The following dose cohorts will be evaluated:
(§2) Each cohort will be enrolled sequentially with 6 subjects per cohort. If ≤1 dose-limiting toxicity (DLT) is observed in the cohort during Cycle 1, escalation to the next cohort will proceed. Subjects may be enrolled in the next cohort if 4 of the 6 subjects enrolled in the cohort completed Cycle 1 without experiencing a DLT, while the remaining 2 subjects are completing evaluation. If ≥2 DLTs are observed during Cycle 1, dosing at that dose and higher will be suspended and the MTD will be established as the previous cohort. […] Dose escalation will end when either the MTD is achieved or at 3 dose levels above full BTK occupancy, whichever occurs first. […] Should escalation to Cohort 6 be necessary, the dose will be determined based on the aggregate data from Cohorts 1 to 5, which includes safety, efficacy, and PK/PD results. The dose for Cohort 6 will not exceed 900 mg/day.
(§3) Dose-limiting toxicity is defined as any of the following events (if not related to disease progression): (1) any Grade ≥3 non-hematologic toxicity (except alopecia) persisting despite receipt of a single course of standard outpatient symptomatic therapy (e.g., Grade 3 diarrhea that responds to a single, therapeutic dose of Imodium® would not be considered a DLT); (2) grade ≥3 prolongation of the corrected QT interval (QTc), as determined by a central ECG laboratory overread; (3) grade 4 neutropenia (absolute neutrophil count [ANC]<500/μL) lasting >7 days after discontinuation of therapy without growth factors or lasting >5 days after discontinuation of therapy while on growth factors (i.e., Grade 4 neutropenia not lasting as long as specified will not be considered a DLT), (4) grade 4 thrombocytopenia (platelet count <20,000/μL) lasting >7 days after discontinuation of therapy or requiring transfusion (i.e., Grade 4 thrombocytopenia not lasting as long as specified will not be considered a DLT), and (5) dosing delay due to toxicity for >7 consecutive days.
(§4) The study scheme is a sequential cohort escalation. Each cohort consists of six subjects. The sample size of the study is 24 to 36 subjects, depending on dose escalation into subsequent cohorts. […] The dose level for Cohort 6 will be determined based on the safety and efficacy of Cohorts 1 to 5, and will not exceed 900 mg/day. Escalation will end with either the MTD cohort or three levels above full BTK occupancy, whichever is observed first. An additional arm of the study will explore 100 mg BID dosing.
(§5) The route of administration is oral (per os, or PO). The dose regimen is once daily or twice daily, as defined by the cohort, on an empty stomach (defined as no food 2 hours before and 30 minutes after dosing).

BTK [15] = biological target: T1, BTK (Mus musculus, UniProt P35991); assay: molecular probe assay, BTK occupancy in MDSCs from tumor bearing PDA mice; type: in vivo; conditions: 15 mg/kg BID, Day 8, 4 hours post dose, granulocytic and monocytic MDSC (N=5)
T1 construct: MDSCs were purified from tumor bearing PDA mice; from tissue; host or cells: granulocytic and monocytic MDSCs purified from tumour-bearing PDA mice
T1 sequence (P35991 whole entry): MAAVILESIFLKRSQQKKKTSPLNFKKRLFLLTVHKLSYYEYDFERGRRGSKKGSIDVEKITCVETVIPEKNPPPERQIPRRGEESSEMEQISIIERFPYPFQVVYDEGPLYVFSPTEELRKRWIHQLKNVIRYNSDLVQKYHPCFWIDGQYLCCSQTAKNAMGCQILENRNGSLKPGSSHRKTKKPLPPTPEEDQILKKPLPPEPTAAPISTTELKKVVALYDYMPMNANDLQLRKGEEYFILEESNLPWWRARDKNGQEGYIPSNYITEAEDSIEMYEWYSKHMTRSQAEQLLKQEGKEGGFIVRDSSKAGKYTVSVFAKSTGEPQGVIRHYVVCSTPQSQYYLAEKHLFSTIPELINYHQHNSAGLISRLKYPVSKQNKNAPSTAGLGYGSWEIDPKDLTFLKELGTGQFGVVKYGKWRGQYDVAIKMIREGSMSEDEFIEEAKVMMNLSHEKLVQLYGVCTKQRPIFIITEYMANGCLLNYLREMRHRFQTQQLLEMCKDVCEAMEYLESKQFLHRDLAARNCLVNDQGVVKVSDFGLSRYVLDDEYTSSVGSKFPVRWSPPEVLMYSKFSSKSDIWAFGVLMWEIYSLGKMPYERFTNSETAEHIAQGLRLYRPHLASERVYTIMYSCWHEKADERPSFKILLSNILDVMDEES
Source text: A molecular probe assay was used to calculate the percent irreversible occupancy of total BTK.

EGFR = EGFR (Homo sapiens, UniProt P00533); assay: EGF-induced EGFR phosphorylation in A431 cells (phosphoflow); conditions: 10 μM, A431 human epidermoid cancer cell line
Chain of EGFR (P00533 25-1210): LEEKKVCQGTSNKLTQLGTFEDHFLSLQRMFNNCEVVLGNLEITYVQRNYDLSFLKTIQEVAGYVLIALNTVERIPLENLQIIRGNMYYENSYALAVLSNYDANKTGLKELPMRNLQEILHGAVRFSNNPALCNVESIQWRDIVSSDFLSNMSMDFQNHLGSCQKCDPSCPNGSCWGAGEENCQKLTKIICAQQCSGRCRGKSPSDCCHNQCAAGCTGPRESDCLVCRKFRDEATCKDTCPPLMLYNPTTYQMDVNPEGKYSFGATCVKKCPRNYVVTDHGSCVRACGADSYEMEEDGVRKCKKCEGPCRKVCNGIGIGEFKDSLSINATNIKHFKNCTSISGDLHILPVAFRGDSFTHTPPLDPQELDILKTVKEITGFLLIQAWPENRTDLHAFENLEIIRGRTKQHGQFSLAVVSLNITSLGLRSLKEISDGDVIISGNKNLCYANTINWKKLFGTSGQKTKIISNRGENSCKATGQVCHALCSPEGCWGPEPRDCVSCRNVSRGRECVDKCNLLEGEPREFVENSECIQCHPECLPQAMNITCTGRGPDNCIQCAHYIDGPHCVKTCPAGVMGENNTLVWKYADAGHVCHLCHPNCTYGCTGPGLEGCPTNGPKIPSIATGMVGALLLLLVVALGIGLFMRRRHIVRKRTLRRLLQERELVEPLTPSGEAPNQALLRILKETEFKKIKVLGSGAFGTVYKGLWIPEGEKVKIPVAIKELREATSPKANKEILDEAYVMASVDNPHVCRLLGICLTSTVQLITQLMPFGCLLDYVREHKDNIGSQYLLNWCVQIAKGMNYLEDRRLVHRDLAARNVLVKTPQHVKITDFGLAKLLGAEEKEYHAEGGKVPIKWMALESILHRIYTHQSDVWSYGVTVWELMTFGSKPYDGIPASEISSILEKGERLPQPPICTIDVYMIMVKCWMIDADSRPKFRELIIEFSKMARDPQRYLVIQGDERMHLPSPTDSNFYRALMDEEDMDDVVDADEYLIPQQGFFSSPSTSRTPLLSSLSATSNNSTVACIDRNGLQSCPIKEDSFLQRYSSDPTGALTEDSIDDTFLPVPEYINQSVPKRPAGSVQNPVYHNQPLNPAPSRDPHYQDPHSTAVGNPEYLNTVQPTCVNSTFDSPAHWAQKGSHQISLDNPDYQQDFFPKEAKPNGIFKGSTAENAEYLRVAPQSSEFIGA

BTK [16] = biological target: BTK (Homo sapiens, UniProt Q06187); assay: BTK target occupancy in relapsed/refractory CLL patients; conditions: at lower dosage versus ibrutinib, FIG. 131
Chain of BTK (Homo sapiens, UniProt Q06187) (Q06187 whole entry): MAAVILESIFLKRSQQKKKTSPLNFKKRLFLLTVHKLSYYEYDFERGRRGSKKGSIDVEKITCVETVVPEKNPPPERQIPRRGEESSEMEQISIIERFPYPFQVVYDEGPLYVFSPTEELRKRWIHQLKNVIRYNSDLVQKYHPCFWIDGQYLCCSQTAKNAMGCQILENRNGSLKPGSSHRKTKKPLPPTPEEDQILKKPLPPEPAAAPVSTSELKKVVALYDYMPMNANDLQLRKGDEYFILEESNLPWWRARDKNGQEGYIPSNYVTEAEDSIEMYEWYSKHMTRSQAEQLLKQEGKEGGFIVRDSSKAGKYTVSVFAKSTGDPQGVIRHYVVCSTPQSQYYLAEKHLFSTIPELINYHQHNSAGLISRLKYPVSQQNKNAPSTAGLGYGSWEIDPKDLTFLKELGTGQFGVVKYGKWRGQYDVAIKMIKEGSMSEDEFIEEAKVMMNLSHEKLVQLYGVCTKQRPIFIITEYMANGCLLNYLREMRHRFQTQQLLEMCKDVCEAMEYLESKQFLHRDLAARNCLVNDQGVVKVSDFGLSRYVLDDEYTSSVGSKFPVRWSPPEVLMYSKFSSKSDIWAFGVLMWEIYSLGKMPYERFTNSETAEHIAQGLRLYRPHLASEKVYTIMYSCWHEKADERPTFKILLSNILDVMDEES

CXCL12 [17] = assay: plasma chemokines in treated CLL patients; type: in vivo, human
CXCL12 [18] = assay: CXCL12 levels in treated patients; type: in vivo, human; conditions: FIG. 145
CLL [19] = conditions: human, in vivo
Source text: as §1, §2, §3, §4, §5

CCL2 [20] = assay: plasma chemokines in treated CLL patients; type: in vivo, human
human platelets = assay: GPVI (convulxin-induced) platelet aggregation; type: cell-based; conditions: CVX-induced
Experimental: GPVI platelet aggregation was measured for Formula (XVIII) and Formula (XX-A) (ibrutinib). Blood was obtained from untreated humans, and platelets were purified from […] by centrifugation. Cells were resuspended to a final concentration of 350,000/μL in buffer containing 145 mmol/L NaCl, 10 mmol/L HEPES, 0.5 mmol/L Na2HPO4, 5 mmol/L KCl, 2 mmol/L MgCl2, 1 mmol/L CaCl2), and 0.1% glucose, at pH 7.4. Stock solutions of […] were prepared on the day of experimentation and added to platelet suspensions 5 minutes (37° C., 1200 rpm) before the induction of aggregation. Aggregation was assessed with a Chronolog Lumi-Aggregometer (model 540 VS; Chronolog, Havertown, Pa.) and permitted to proceed for 6 minutes after the addition of agonist. The results are reported as maximum percent change in light transmittance from baseline with platelet buffer used as a reference.
In FIG. 123, the results of CVX-induced (250 ng/mL) human platelet aggregation results before and 15 minutes after administration of the BTK inhibitors to 6 healthy individuals are shown.

CYP3A4 = CYP3A4 (Homo sapiens, UniProt P08684); assay: loss of parent drug as catalyzed by CYPs; type: in vitro ADME; conditions: in vitro loss of parent drug
Chain of CYP3A4 (P08684 whole entry): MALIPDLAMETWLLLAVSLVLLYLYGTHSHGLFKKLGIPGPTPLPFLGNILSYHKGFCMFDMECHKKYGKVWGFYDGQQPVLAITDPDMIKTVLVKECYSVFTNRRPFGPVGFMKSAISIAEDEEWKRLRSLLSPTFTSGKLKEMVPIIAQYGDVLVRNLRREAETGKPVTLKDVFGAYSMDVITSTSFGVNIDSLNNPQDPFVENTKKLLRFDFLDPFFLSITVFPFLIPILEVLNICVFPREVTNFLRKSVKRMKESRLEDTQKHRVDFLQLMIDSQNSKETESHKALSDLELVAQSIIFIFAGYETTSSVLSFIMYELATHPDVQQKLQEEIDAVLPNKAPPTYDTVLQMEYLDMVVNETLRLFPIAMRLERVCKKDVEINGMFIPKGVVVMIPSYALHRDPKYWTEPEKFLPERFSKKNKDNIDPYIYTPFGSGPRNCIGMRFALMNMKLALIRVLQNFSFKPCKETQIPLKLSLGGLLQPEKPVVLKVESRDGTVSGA

hepatocytes = assay: in vitro metabolism in hepatocytes with 14C-labeled drug; type: in vitro ADME, mouse, rat, dog, rabbit, monkey, and human
[21] = within the tested dose range; cited from earlier work

CC#CC(=O)N1CCC[C@H]1c1nc(-c2ccc(C(=O)Nc3ccccn3)cc2)c2c(N)nccn12 [Formula XVIII]
IC50 [1]: 1150 nM

C=CC(=O)Nc1cccc(Nc2nc(Nc3ccc(OCCOC)cc3)ncc2F)c1 [Formula XXVII (CC-292), N-(3-((5-fluoro-2-((4-(2-methoxyethoxy)phenyl)amino)pyrimidin-4-yl)amino)phenyl)acrylamide, reference compound]
effect on human platelet-mediated thrombus formation [2]: effect similar to Formula (XX-A) (ibrutinib)

C=CC(=O)Nc1cccc(Nc2nc(Nc3ccc(OCCOC)cc3)ncc2F)c1 [CC-292]
EC50 (B cell receptor): 121 nM

C=CC(=O)N1CCC[C@@H](n2nc(-c3ccc(Oc4ccccc4)cc3)c3c(N)ncnc32)C1 [Formula (XX-A), reference compound]
IC50 ([1]; Platelet): 130 nM

CC#CC(=O)N1CCC[C@H]1c1nc(-c2ccc(C(=O)Nc3ccccn3)cc2)c2c(N)nccn12 [Formula (XVIII), (S)-4-(8-amino-3-(1-(but-2-ynoyl)pyrrolidin-2-yl)imidazo[1,5-a]pyrazin-1-yl)-N-(pyridin-2-yl)benzamide]
in vivo potency, inhibition of expression of activation markers CD69 and CD86 [3]: more potent at inhibiting expression of activation makers than ibrutinib
complete responses (CR) (canine B cell lymphoma; Arm 1: 21 dogs, Arm 2: 10 dogs): not observed
dogs with shrinkage of target lesions >20% (canine B cell lymphoma; Arm 1: 21 dogs, Arm 2: 10 dogs): 8 dogs
Median time to best response (canine B cell lymphoma; dog, in vivo): 7 days
best tumor responses, reduction in the sum of target lesions (canine B cell lymphoma; dog, in vivo): 45-49%
absolute lymphocyte count (ALC) (CLL [4]; relative to ibrutinib (Byrd et al. 2013)): much smaller relative increase and much faster decrease
sum of the product of greatest diameters (SPD) (CLL [4]; versus ibrutinib): decreases more rapidly
body temperature, cardiovascular, or ECG (including QT interval) parameters [5]: no meaningful changes
activity in binding assays with 80 known pharmacologic targets [6]: significant activity only against the A3 adenosine receptor
neurobehavioral effects or body temperature, functional observation battery [7]: no adverse effects
glutathione binding and depletion [8]: binds to glutathione but does not deplete glutathione
metabolic processes in plasma, bile, and urine [9]: oxidation, glutathione binding, and hydrolysis
number of tumors (NSCLC (KrasLA2) tumors): fewer overall tumors
tumor volumes versus vehicle (NSCLC (KrasLA2) tumors): significant decrease
CCL2 levels (CCL2 [10]): decrease
apoptosis (CLL [11]): increased apoptosis
levels in the brain and CSF samples [12]: low but detectable levels
potential for clinical drug-drug interactions via CYP enzymes (CYP enzymes): very unlikely to cause clinical drug-drug interactions
respiratory function [13]: no treatment-related adverse effects
PD (CLL [14]; 100 mg BID (N = 3)): 0 (0) n (%)
PR (CLL [14]; 100 mg BID (N = 3)): 3 (100) n (%)
PR + L (CLL [14]; 100 mg BID (N = 3)): 0 (0) n (%)
PD (CLL [14]; 100 mg QD (N = 8)): 0 (0) n (%)
PR (CLL [14]; 100 mg QD (N = 8)): 7 (88) n (%)
PR + L (CLL [14]; 100 mg QD (N = 8)): 0 (0) n (%)
PD (CLL [14]; 175 mg QD (N = 8)): 0 (0) n (%)
PR (CLL [14]; 175 mg QD (N = 8)): 5 (63) n (%)
PR + L (CLL [14]; 175 mg QD (N = 8)): 3 (37) n (%)
PD (CLL [14]; 250 mg QD (N = 7)): 0 (0) n (%)
PR (CLL [14]; 250 mg QD (N = 7)): 5 (71) n (%)
PR + L (CLL [14]; 250 mg QD (N = 7)): 2 (29) n (%)
PD (CLL [14]; 400 mg QD (N = 5)): 0 (0) n (%)
PR (CLL [14]; 400 mg QD (N = 5)): 2 (40) n (%)
PR + L (CLL [14]; 400 mg QD (N = 5)): 2 (40) n (%)
PD (CLL [14]; All Cohorts (N = 31)): 0 (0) n (%)
PR (CLL [14]; All Cohorts (N = 31)): 22 (71) n (%)
PR + L (CLL [14]; All Cohorts (N = 31)): 7 (23) n (%)
treatment time at which median % change in SPD achieved the same status (CLL [14]; CLL patients, present study): 7 months
Headache (treatment-related adverse event) (CLL [14]; Grade 1/2, All (N = 44)): 7 (16) n (%)
Diarrhea (treatment-related adverse event) (CLL [14]; Grade 1, All (N = 44)): 4 (9) n (%)
Increased tendency to bruise (treatment-related adverse event) (CLL [14]; Grade 1, All (N = 44)): 6 (14) n (%)
Petechiae (treatment-related adverse event) (CLL [14]; Grade 1, All (N = 44)): 3 (7) n (%)
grade of AEs observed (CLL [14]; human, in vivo): only grade 1 AEs
lymphocytosis (CLL [14]; human, in vivo): A lack of lymphocytosis
dose-limiting toxicities (DLTs) (CLL [14]; relapsed/refractory CLL): No DLTs
treatment-related serious adverse events (SAEs) (CLL [14]; relapsed/refractory CLL): No treatment-related serious adverse events
progression in patients with the 17p deletion (CLL [14]; to date): no 17p patients have progressed
irreversible occupancy of total BTK in MDSCs (BTK [15]): Complete BTK occupancy
inhibition of in vitro EGFR phosphorylation (EGFR): no inhibition
BTK target occupancy (BTK [16]): improved BTK target occupancy
plasma CXCL12 levels (CXCL12 [17]): significant decrease
CXCL12 levels (CXCL12 [18]): decrease
MTD (CLL [19]): not reached
plasma CCL2 levels (CCL2 [20]): significant decrease
inhibition of GPVI platelet aggregation (human platelets): does not
CYP responsible for metabolism (CYP3A4): metabolized by CYP3A4
EC50 (B cell receptor; B-cell): 8.2 nM
effect on human platelet-mediated thrombus formation [2]: no significant effect
unique human metabolite (hepatocytes; hepatocytes): No unique human metabolite
metabolites in hepatocytes (hepatocytes; mouse, rat, dog, rabbit, monkey, and human hepatocytes): two mono-oxidized metabolites and a glutathione conjugate

C=CC(=O)N1CCC[C@@H](n2nc(-c3ccc(Oc4ccccc4)cc3)c3c(N)ncnc32)C1 [ibrutinib]
maximum tolerated dose (MTD) [21]: No maximum tolerated dose
EC50 (B cell receptor; B-cell): 6.1 nM
